Values quoted from earlier work in PMC7926623 (Marine Drugs, 2021).

Tested on: rα6/α3β2β3 nAChR
Settings: cited from earlier work

α-Conotoxin TxIB
IC50: 28.4 nM
